From BindingDB's records for doi:10.1021/jm00076a021 (New York University, 1994)
pIC50: −log10 of the molar value.

Test: Binding affinity against sigma receptor in bovine cerebellum using 2.0 nM [3H]haloperidol in the presence of 25 nM unlabeled spiperone

Work on `O=C(CCN1CC=C(c2ccc(Cl)cc2)CC1)c1ccccc1Cl` [1-(2-Chloro-phenyl)-3-[4-(4-chloro-phenyl)-3,6-dihydro-2H-pyridin-1-yl]-propan-1-one] yielded a pIC50 of 6.98.
